This note sets out measurements from patent US20110046160A1, “Novel Class of Spiro Piperidines for the Treatment of Neurodegenerative Diseases” (Pfizer, Inc., priority 2008, published 2011).

The experiment deals with T1, soluble human BACE (Homo sapiens, UniProt P56817).
T1 construct: cells secreting human recombinant soluble BACE; made in house; concentrated conditioned medium, crude or purified
Briefly: Inhibition of BACE: beta-secretase cleavage of synthetic biotinylated APP substrate, ELISA readout. It counts as biochemical. As to conditions: 3 μM substrate, 0.05M sodium acetate (pH 4.5), 2% DMSO, 1 hour at 37° C., ELISA absorbance at 450 nm. As to the method:
The substrate and test compounds are added to 384 well polypropylene plates. The reaction is initiated by the addition of soluble BACE enzyme to a final volume of 12.5 μL per well. […] Concentrated conditioned media from cells secreting human recombinant soluble BACE was titrated to provide a source of BACE enzyme. The cell media can be used as either a crude BACE prep or BACE can be purified using any number of techniques, including immobilized BACE inhibitor purification columns. The assay mixture is incubated for 1 hour at 37° C., and the reaction is quenched by the addition of an equal volume of 0.1M Tris, pH 8. Half of the quenched mix is incubated on clear streptavidin coated 384 well polystyrene plates for 1 hour. […] The readout, following assay development with TMB substrate and quenching with 0.09M sulfuric acid, is absorbance at 450 nm.
(In general: An ELISA detects its analyte on a solid surface through an enzyme-linked reagent.)

As a reminder, the IC50 is the concentration that inhibits the measured activity by half. Read a low IC50 as higher potency.

T1 sequence (P56817 46-457 limits assumed): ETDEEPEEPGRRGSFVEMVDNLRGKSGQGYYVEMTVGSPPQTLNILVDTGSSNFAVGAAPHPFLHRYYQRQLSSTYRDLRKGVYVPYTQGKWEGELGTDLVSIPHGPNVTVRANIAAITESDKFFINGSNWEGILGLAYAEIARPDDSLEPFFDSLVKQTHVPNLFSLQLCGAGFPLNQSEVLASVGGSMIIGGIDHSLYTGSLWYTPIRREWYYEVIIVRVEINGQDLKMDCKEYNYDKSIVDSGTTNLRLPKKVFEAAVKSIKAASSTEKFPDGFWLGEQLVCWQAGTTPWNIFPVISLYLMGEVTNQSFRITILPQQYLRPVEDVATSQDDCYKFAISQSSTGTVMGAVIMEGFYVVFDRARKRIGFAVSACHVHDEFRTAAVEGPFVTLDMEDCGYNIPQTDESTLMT

`Cc1ccncc1-c1cccc(CN2CC[C@]3(CNS(=O)(=O)N3c3cccc(F)c3)C[C@@H]2C)c1` [Example 17, (5R,7S)-1-(3-fluorophenyl)-7-methyl-8-[3-(4-methylpyridin-3-yl)benzyl]-2-thia-1,3,8-triazaspiro[4.5]decane 2,2-dioxide] gave an IC50 of 1.51 µM.
The value for `CC(C)Oc1cccc(CN2CC[C@]3(CNS(=O)(=O)N3c3cccc(F)c3)C[C@@H]2C)n1` [Example 83, (5R,7S)-1-(3-fluorophenyl)-8-[(6-isopropoxypyridin-2-yl)methyl]-7-methyl-2-thia-1,3,8-triazaspiro[4.5]decane 2,2-dioxide] was 102 µM.
